Experimental data published in US6413913B1, “Thiono-thiochroman and -dihydrobenzothiophene compounds as herbicidal agents” (BASF Corporation, priority 1999, dated 2002).

Assays:
ECHCG (Barnyardgrass) [1] = assay: Postemergence herbicidal evaluation; format: in vivo, Echinochloa crus-galli, (L.) Beau; conditions: rated about 2-3 weeks after treatment, scale 0-9, averaged
Procedure: (§1) Seedling plants are grown in jiffy flats for about two weeks. The test compounds are dispersed in 80/20 (v/v) acetone/water mixtures containing 1.0% SUN-IT® II, a methylated seed oil, in sufficient quantities to provide the equivalent of about 0.006 kg/ha to 0.800 kg/ha of active compound when applied to the plants through a spray nozzle operating at 40 psi for a predetermined time. After spraying, the plants are placed on greenhouse benches and are cared for in accordance with conventional greenhouse procedures. Approximately two—three weeks after treatment, the seedling plants are examined and rated according to the rating system set forth below. Where more than one test is involved for a given compound, the data are averaged.

SETVI (Foxtail, Green) [2] = assay: Postemergence herbicidal evaluation; format: in vivo, Setaria viridis, (L.) Beau; conditions: rated about 2-3 weeks after treatment, scale 0-9, averaged
Procedure: as §1

[3] = tested on: IPOHE (Morningglory, Ivyleaf); assay: Preemergence herbicidal evaluation; format: in vivo, Ipomoea hederacea, (L) Jacq.; conditions: rated about 2-4 weeks after treatment, scale 0-9
From the text: (§2) In these tests, seeds of a variety of monocotyledonous and dicotyledonous plants are separately mixed with potting soil and planted on top of approximately one inch of soil in separate pint cups. After planting, the cups are sprayed with the selected aqueous acetone solution containing test compound in sufficient quantity to provide the equivalent of about 0.0125 to 0.800 kg per hectare of test compound per cup. The treated cups are then placed on greenhouse benches, watered and cared for in accordance with conventional greenhouse procedures. Approximately two—four weeks after treatment, the tests are terminated and each cup is examined and rated according to the rating system provided in Example 6.

[4] = tested on: IPOHE (Morningglory, Ivyleaf); assay: Postemergence herbicidal evaluation; format: in vivo, Ipomoea hederacea, (L) Jacq.; conditions: rated about 2-3 weeks after treatment, scale 0-9, averaged
Procedure: as §1

SETVI (Foxtail, Green) [5] = assay: Preemergence herbicidal evaluation; format: in vivo, Setaria viridis, (L.) Beau; conditions: rated about 2-4 weeks after treatment, scale 0-9
From the text: as §2

AMBEL (Ragweed, Common) [6] = assay: Postemergence herbicidal evaluation; format: in vivo, Ambrosia artemisifolia, L.; conditions: rated about 2-3 weeks after treatment, scale 0-9, averaged
Procedure: as §1

ZEAMX (Corn, Field) [7] = assay: Postemergence herbicidal evaluation (crop); format: in vivo, Zea mays, L.; conditions: rated about 2-3 weeks after treatment, scale 0-9, averaged
Procedure: as §1

ECHCG (Barnyardgrass) [8] = assay: Preemergence herbicidal evaluation; format: in vivo, Echinochloa crus-galli, (L.) Beau; conditions: rated about 2-4 weeks after treatment, scale 0-9
From the text: as §2

ZEAMX (Corn, Field) [9] = assay: Preemergence herbicidal evaluation (crop); format: in vivo, Zea mays, L.
From the text: as §2

AMBEL (Ragweed, Common) [10] = assay: Preemergence herbicidal evaluation; format: in vivo, Ambrosia artemisifolia, L.; conditions: rated about 2-4 weeks after treatment, scale 0-9
From the text: as §2

PANDI (Panicum, Fall) [11] = assay: Postemergence herbicidal evaluation; format: in vivo, Panicum dichotomiflorum, Michx.; conditions: rated about 2-3 weeks after treatment, scale 0-9, averaged
Procedure: as §1

ABUTH (Velvetleaf) [12] = assay: Preemergence herbicidal evaluation; format: in vivo, Abutilon theophrasti, Medic.; conditions: rated about 2-4 weeks after treatment, scale 0-9
From the text: as §2

PANDI (Panicum, Fall) [13] = assay: Preemergence herbicidal evaluation; format: in vivo, Panicum dichotomiflorum, Michx.; conditions: rated about 2-4 weeks after treatment, scale 0-9
From the text: as §2

ABUTH (Velvetleaf) [14] = assay: Postemergence herbicidal evaluation; format: in vivo, Abutilon theophrasti, Medic.; conditions: rated about 2-3 weeks after treatment, scale 0-9, averaged
Procedure: as §1

[15] = preemergence, 0.050 kg/ha, rated about 2-4 weeks after treatment, scale 0-9
[16] = preemergence, 0.100 kg/ha, rated about 2-4 weeks after treatment, scale 0-9

| SMILES | Herbicide rating ECHCG (ECHCG (Barnyardgrass) [1]; 0.050 kg/ha) | Herbicide rating ECHCG (ECHCG (Barnyardgrass) [1]; 0.100 kg/ha) | Herbicide rating SETVI (SETVI (Foxtail, Green) [2]; 0.050 kg/ha) | Herbicide rating SETVI (SETVI (Foxtail, Green) [2]; 0.100 kg/ha) | Herbicide rating IPOHE ([3]; 0.050 kg/ha) | Herbicide rating IPOHE ([3]; 0.100 kg/ha) | Herbicide rating SETVI (SETVI (Foxtail, Green) [5]; 0.050 kg/ha) | Herbicide rating SETVI (SETVI (Foxtail, Green) [5]; 0.100 kg/ha) | Herbicide rating AMBEL (AMBEL (Ragweed, Common) [6]; 0.050 kg/ha) | Herbicide rating AMBEL (AMBEL (Ragweed, Common) [6]; 0.100 kg/ha) | Herbicide rating ECHCG (ECHCG (Barnyardgrass) [8]; 0.050 kg/ha) | Herbicide rating ECHCG (ECHCG (Barnyardgrass) [8]; 0.100 kg/ha) | Herbicide rating AMBEL (AMBEL (Ragweed, Common) [10]; 0.050 kg/ha) | Herbicide rating AMBEL (AMBEL (Ragweed, Common) [10]; 0.100 kg/ha) | Herbicide rating PANDI (PANDI (Panicum, Fall) [11]; 0.050 kg/ha) | Herbicide rating PANDI (PANDI (Panicum, Fall) [11]; 0.100 kg/ha) | Herbicide rating ABUTH (ABUTH (Velvetleaf) [12]; 0.050 kg/ha) | Herbicide rating ABUTH (ABUTH (Velvetleaf) [12]; 0.100 kg/ha) | Herbicide rating PANDI (PANDI (Panicum, Fall) [13]; 0.050 kg/ha) | Herbicide rating PANDI (PANDI (Panicum, Fall) [13]; 0.100 kg/ha) | further results |
| --- | --- | --- | --- | --- | --- | --- | --- | --- | --- | --- | --- | --- | --- | --- | --- | --- | --- | --- | --- | --- | --- |
| CCn1ncc(C(=S)c2ccc3c(c2C)/C(=N/OC)CCS3(=O)=O)c1O [Example 1, 6-[(1-Ethyl-5-hydroxypyrazol-4-yl)thicarbonyl]-5-methylthiochroman-4-one (E) -O-Methyloxime, 1,1-Dioxide] | 8.0 | 7.8 | 8.5 | 9.0 | 2.5 | 6.0 | 6.6 | 8.4 | 8.2 | 8.4 | 5.8 | 8.3 | 8.5 | 8.8 | 6.3 | 6.5 | 7.3 | 9.0 | 8.0 | 8.5 | Herbicide rating IPOHE ([4]; 0.050 kg/ha): 2.0; Herbicide rating IPOHE ([4]; 0.100 kg/ha): 3.0; Herbicide rating ZEAMX (crop injury, corn) (ZEAMX (Corn, Field) [7]; 0.050 kg/ha): 1.2; Herbicide rating ZEAMX (crop injury, corn) (ZEAMX (Corn, Field) [7]; 0.100 kg/ha): 3.0; Herbicide rating ZEAMX (crop injury, corn) (ZEAMX (Corn, Field) [9]; [15]): 0.0; Herbicide rating ZEAMX (crop injury, corn) (ZEAMX (Corn, Field) [9]; [16]): 0.8; Herbicide rating ABUTH (ABUTH (Velvetleaf) [14]; 0.050 kg/ha): 7.6; Herbicide rating ABUTH (ABUTH (Velvetleaf) [14]; 0.100 kg/ha): 8.0 |
| CCn1ncc(C(=S)c2ccc3c(c2C)C(C)(C)CS3(=O)=O)c1O [Example 4] | 8.0 | 8.0 | 4.0 | 7.0 | 1.0 | 1.0 | 3.0 | 3.0 | 8.0 | 8.0 | 2.0 | 9.0 | 2.0 | 9.0 | 3.0 | 9.0 | 6.0 | 9.0 | 2.0 | 7.0 | Herbicide rating IPOHE ([4]; 0.050 kg/ha): 4.0; Herbicide rating IPOHE ([4]; 0.100 kg/ha): 4.0; Herbicide rating ZEAMX (crop injury, corn) (ZEAMX (Corn, Field) [9]; in vivo): 0.0; Herbicide rating ABUTH (ABUTH (Velvetleaf) [14]; 0.050 kg/ha): 4.0; Herbicide rating ABUTH (ABUTH (Velvetleaf) [14]; 0.100 kg/ha): 7.0 |
| CCn1ncc(C(=S)c2cc(C)c3c(c2C)C(C)(C)CCS3(=O)=O)c1O [Example 2] | 5.0 | 9.0 | 9.0 | 9.0 | 0.0 | 0.0 | 4.0 | 5.0 | 6.0 | 9.0 | 0.0 | 3.0 | 2.0 | 3.0 | 5.0 | 4.0 | 3.0 | 9.0 | 5.0 | 7.0 | Herbicide rating IPOHE ([4]; 0.050 kg/ha): 2.0; Herbicide rating IPOHE ([4]; 0.100 kg/ha): 4.0; Herbicide rating ZEAMX (crop injury, corn) (ZEAMX (Corn, Field) [9]; in vivo): 0.0; Herbicide rating ABUTH (ABUTH (Velvetleaf) [14]; 0.050 kg/ha): 9.0; Herbicide rating ABUTH (ABUTH (Velvetleaf) [14]; 0.100 kg/ha): 9.0 |
| Cc1c(C(=S)c2cnn(C)c2O)ccc2c1C(C)(C)CS2(=O)=O [Example 3] | 7.0 | 9.0 | 8.0 | 8.0 | 2.0 | 2.0 | 5.0 | 7.0 | 9.0 | 8.0 | 7.0 | 8.5 | 5.5 | 7.0 | 7.0 | 8.0 | 8.0 | 9.0 | 6.5 | 8.0 | Herbicide rating ZEAMX (crop injury, corn) (ZEAMX (Corn, Field) [9]; in vivo): 0.0; Herbicide rating ABUTH (ABUTH (Velvetleaf) [14]; 0.050 kg/ha): 9.0; Herbicide rating ABUTH (ABUTH (Velvetleaf) [14]; 0.100 kg/ha): 8.0 |
| CCCS(=O)(=O)Oc1c(C(=S)c2ccc3c(c2C)/C(=N/OC)CCS3(=O)=O)cnn1CC [Example 5] | – | – | – | – | – | – | 6.0 | 6.0 | – | – | 6.0 | 6.0 | 7.0 | 9.0 | – | – | 9.0 | 9.0 | 7.0 | 7.0 | Herbicide rating ZEAMX (crop injury, corn) (ZEAMX (Corn, Field) [7]; 0.050 kg/ha): 0.0; Herbicide rating ZEAMX (crop injury, corn) (ZEAMX (Corn, Field) [7]; 0.100 kg/ha): 3.0; Herbicide rating ZEAMX (crop injury, corn) (ZEAMX (Corn, Field) [9]; [15]): 0.0; Herbicide rating ZEAMX (crop injury, corn) (ZEAMX (Corn, Field) [9]; [16]): 0.0 |
